Assay results from patent EP0560267B1, “Isosteric antiherpes peptide derivatives” (BOEHRINGER INGELHEIM (CANADA) LTD., priority 1992, dated 1993).
Values belong to the compound of their own block, whether it stands above or below them.

Experiments:
[1] = target: T1, HSV-1 ribonucleotide reductase (Human herpesvirus 1, UniProt P08543); test: Inhibition of Herpes Simplex Virus (HSV-1) ribonucleotide reductase; assay type: biochemical
T1 construct: HSV-1 ribonucleotide reductase (partially purified) was obtained from quiescent BHK-21/C13 cells infected with strain F HSV-1 virus; made in house; host or cells: quiescent BHK-21/C13 cells infected with HSV-1 strain F (virus-encoded enzyme, partially purified)
T1 sequence (P08543 whole entry): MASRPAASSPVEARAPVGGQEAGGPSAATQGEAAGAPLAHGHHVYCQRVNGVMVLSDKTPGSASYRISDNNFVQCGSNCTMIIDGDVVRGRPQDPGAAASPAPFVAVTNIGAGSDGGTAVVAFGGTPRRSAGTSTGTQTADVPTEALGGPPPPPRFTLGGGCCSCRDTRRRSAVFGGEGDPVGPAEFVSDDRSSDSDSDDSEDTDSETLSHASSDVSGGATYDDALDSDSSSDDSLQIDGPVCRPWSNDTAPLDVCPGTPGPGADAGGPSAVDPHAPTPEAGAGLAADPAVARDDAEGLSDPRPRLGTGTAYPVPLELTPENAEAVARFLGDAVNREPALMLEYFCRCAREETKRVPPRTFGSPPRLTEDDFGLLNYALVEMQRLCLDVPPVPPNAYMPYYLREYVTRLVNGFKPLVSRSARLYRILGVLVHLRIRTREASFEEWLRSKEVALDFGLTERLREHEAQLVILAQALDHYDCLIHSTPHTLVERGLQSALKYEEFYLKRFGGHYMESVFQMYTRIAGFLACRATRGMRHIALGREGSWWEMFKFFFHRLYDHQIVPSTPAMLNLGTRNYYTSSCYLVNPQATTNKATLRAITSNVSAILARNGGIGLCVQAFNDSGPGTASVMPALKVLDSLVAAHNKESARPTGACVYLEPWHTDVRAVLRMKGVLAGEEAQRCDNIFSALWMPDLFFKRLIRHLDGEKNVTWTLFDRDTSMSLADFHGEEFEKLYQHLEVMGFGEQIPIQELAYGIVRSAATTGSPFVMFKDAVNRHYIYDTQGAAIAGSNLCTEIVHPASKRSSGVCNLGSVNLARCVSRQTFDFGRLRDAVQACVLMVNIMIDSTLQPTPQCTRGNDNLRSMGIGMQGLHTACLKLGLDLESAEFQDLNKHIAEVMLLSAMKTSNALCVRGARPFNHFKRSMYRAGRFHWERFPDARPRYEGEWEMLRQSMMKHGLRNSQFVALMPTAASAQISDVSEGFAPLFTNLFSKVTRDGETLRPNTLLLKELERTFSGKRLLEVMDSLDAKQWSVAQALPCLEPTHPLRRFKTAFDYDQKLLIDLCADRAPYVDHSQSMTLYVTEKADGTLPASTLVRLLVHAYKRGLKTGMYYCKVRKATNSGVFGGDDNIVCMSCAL
How it was run: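 Partially purified enzyme from quiescent BHK-21/C13 cells infected with HSV-1 strain F at 10 PFU/cell, used at constant units per assay. IC50 taken as concentration giving 50% of maximal inhibition versus no-compound control; mean of four assays.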

[2] = tested on: HSV-2; test: Inhibition of Herpes Simplex Virus (HSV-2) replication in cell culture; assay type: cell-based
How it was run: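 Serum-starved BHK-21/C13 cells infected with HSV-2 strain HG-52 (MOI 0.02 PFU/cell), then exposed to compound in BBMT medium for 29 h at 37°. Progeny virus titrated on fresh BHK-21/C13 cells by neutral red viability read at 540; EC50 as concentration halving virus replication.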

Compound: CCC(CC)NC(=O)NC(C(=O)CC(CC(=O)C1CCCC1)C(=O)NC(C(=O)NCC(C)(C)C)C1(C(=O)O)CCCC1)C(C)(C)C [Et2CHNHC(O)-Tbg-CH2-(R)-CH{CH2C(O)-(cyclopentyl)}C(O)-Asp(cyPn)-NHCH2CMe3]
- IC50 ([1]; Table I, partially purified enzyme from BHK-21/C13 cells infected with strain F HSV-1, mean of four assays): 220 nM
- EC50 ([2]; Human alphaherpesvirus 2, BHK21 (C13), 29 h): 50 µM

- IC50 ([1]; Table IV, assay of example 10): 360 nM
- EC50 ([2]; Human alphaherpesvirus 2, Table IV, cell culture assay of example 11): 29 µM
Compound: CCCC(C)(CCC)NC(=O)NC(C(=O)CC(CC(=O)C(C)(C)C)C(=O)NC(C(=O)NCC(C)(C)CC)C1(C(=O)O)CCCC1)C(C)(C)C [MePr2CHNHC(O) / NHCH2CMe2Et, MePr2CHNHC(O)-Tbg-CH2-(R)-CH(CH2C(O)CMe3)C(O)-Asp(cyPn)-NHCH2CMe2Et]

Compound: CCCC(CCC)NC(=O)NC(C(=O)CC(CC(=O)C1CCCCC1)C(=O)NC(C(=O)NCC(C)(C)C)C1(C(=O)O)CCCC1)C(C)(C)C [Pr2CHNHC(O)-Tbg-CH2-(R)-CH{CH2-C(O)-(cyclohexyl)}C(O)-Asp(cyPn)-NHCH2CMe3]
- IC50 ([1]; Table V, assay of example 10): 370 nM
- EC50 ([2]; Human alphaherpesvirus 2): 61 µM
